Legend:
human Eg5 mRNA = test: peptide-mediated transfection of siRNA targeting Eg5 (mRNA level, CytoTox-Glo apoptosis); format: cell-based
Experimental: The siRNA sequence specificity of NRTN was investigated via analysis of the peptide's ability to transfect a siRNA duplex targeting human Eg5 mRNA. The Eg5 knockdown dependent induction of apoptosis was determined by performing a CytoTox-Glo cytotoxicity assay (Promega Inc.). The mRNA values obtained at 1 μM were set to 100% to show dose dependent effects. Induction of apoptosis is expressed as percent of medium control. Aha1 siRNA is shown as black filled squares; luciferase siRNA is shown as non-filled circles.
(§1) Then, the cells were treated with a luminogenic peptide substrate in order to measure dead-cell protease activity, which is released from cells that have lost membrane integrity. […] The luminescence of this assay therefore represents dead cells. The 96 well plates were then analyzed in an InfiniteF200 luminescence reader.
An effective reduction of cellular Eg5 mRNA levels was found at concentrations of <10 μM. […] It is known that effective depletion of Eg5 mRNA causes mitotic arrest resulting in the onset of apoptosis (Blangy, A. et al. (1995), supra). […] Transfections with control siRNA under identical conditions were not cytotoxic either, thus confirming that the apoptotic phenotype was caused by Eg5 mRNA depletion.

human Aha1 mRNA = test: siRNA transfection in the presence of serum; format: cell-based; conditions: serum-containing medium
Experimental: NRTN was analyzed for its ability to transfect siRNA duplexes in the absence (A) and presence (B) of serum in the transfection medium. The experimental approach was the same as in FIG. 3. The assay was either carried out in normal RPMI 1640 growth medium containing 10% FCS (B) or for three hours in OptiMEM reduced serum medium followed by change of the medium back to normal growth medium (A). The mRNA values obtained at 1 μM were set to 100% to show dose dependent effects. Aha1 siRNA is shown as black filled squares; luciferase siRNA is shown as non-filled circles.
Most of the assays described herein were performed under the “standard in vitro conditions” for the detection of peptide-mediated transfection that are well established in the art (see, e.g., Simeoni, F. et al. (2003) Nucleic Acids Res. 31, 2717-2724; Richard, J. P. et al. (2005) J. Biol. Chem. 280, 15300-15306; Abes, R. et al. (2007) Biochem. Soc. Trans. 35, 775-779; Kumar, P. et al. (2007) Nature 448, 39-43; Mueller, J. et al. (2008) Bioconjug. Chem. 19, 2363-2374; Sugita, T. et al. (2008) Br. J. Pharmacol. 153, 1143-1152). Accordingly, the incubation for the initial “transfection step” is performed under basically serum free conditions. The addition of serum at this step interferes with the transfection ability of the CPPs (cf. FIG. 13; see also Ignatovich, I. A. et al. (2003), supra). […]

[1] = tested on: MCF-7 human breast cancer cells; test: cell viability/apoptosis after 24 h exposure to pro-apoptotic peptides and CPP fusions; format: cell-based; conditions: MCF-7 cells, various concentrations
Experimental: (§2) MCF-7 human breast cancer cells were incubated for 24 h in the presence of various concentrations of NRTN (squares), Nur (circles), and NurNRTN (triangles) peptides. The respective amino acid sequences are given in the bottom panel. The experimental approach for assessing cell viability (and thus induction of apoptosis) was the same as in FIG. 3.
as §2, with “4E-BP1 (circles), TAT4E-BP1” for “NRTN”, “(squares),” for “(squares), Nur (circles),”, “NRTN4E-BP1” for “NurNRTN”, “peptides (top panel). […]” for “peptides.”
Luminescence was analyzed in an InfiniteF200 luminescence reader.
as §1
Despite its proven ability to convert BCL-2 into a pro-apoptotic molecule, addition of the latter peptide (i.e. “Nor/Nur”; SEQ ID NO: 72) to cancer cells, even in high concentrations, is not sufficient to induce apoptosis, as the cellular target protein is located in the cytoplasm, but the peptide per se cannot effectively penetrate through the cell membrane to reach the target. In brief, MCF-7 breast cancer cells were incubated in the presence of this peptide for 24 h.
(§3) Subsequently, it was evaluated whether the NurNRTN fusion peptide is capable of penetrating cellular membranes and thereby induces pro-apoptotic activity within cells. MCF-7 human breast cancer cells were used as a model. The experimental approach was as described above (cf. Example 1). […] This effect was dose dependent: cytotoxicity increased with increasing concentrations of peptide.
as §3, with “NRTN4E-BP1” for “NurNRTN”

recombinant BCL2 = molecular target: T1, recombinant BCL2 (Homo sapiens, UniProt P10415); test: BCL2 binding to bead-immobilized peptides; conditions: iodoacetyl beads, elution buffer pH 2.8, protein stain
T1 construct: purchased Calbiochem/Merck, Darmstadt, Germany
Experimental: In order to determine whether the BCL2 binding properties of the Nur77-derived peptide are maintained in the NurNRTN fusion peptide, the respective NurNRTN and NRTN peptides were coupled to iodoacetyl beads (Pierce Biotechnology, Inc., Rockford, Ill., USA). The beads were incubated with recombinant BCL2 (Calbiochem/Merck, Darmstadt, Germany) and washed with PBS and 0.5 M NaCl, 0.025 NaN3, 0.05% Tween20 to remove unbound protein. Specific binding of BCL2 to the immobilized NurNTRN fusion peptide was determined by eluting bound […] from the beads with elution buffer (pH 2.8), transfer of the eluted fraction to nitrocellulose (Invitrogen Corporation, Carlsbad, Calif., USA), and protein detection by means of the MemCode Reversible Protein Stain Kit (Pierce Biotechnology, Inc., Rockford, Ill., USA).

T1 sequence (P10415 whole entry): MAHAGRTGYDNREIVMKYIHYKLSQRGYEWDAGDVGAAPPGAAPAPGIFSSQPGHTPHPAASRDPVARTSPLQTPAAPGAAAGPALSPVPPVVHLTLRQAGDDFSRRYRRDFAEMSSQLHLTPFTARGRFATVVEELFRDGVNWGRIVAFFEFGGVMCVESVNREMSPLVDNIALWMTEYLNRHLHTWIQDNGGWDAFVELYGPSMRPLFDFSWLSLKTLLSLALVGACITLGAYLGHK
Experimental for MCF7 cells: MCF7 cells were seeded at a density of 15.000 cells per well in 96 well plates. The cells were incubated for 24 hours at 37° C., 5% CO2 and 85% humidity in RPMI 1640 medium supplemented with 10% FCS (fetal calf serum) and L-glutamine. For functional assays, the cells were washed in OptiMEM medium and RPMI 1640 was replaced with OptiMEM (all reagents were purchased from Invitrogen Corporation, Carlsbad, Calif., USA). Complexes of siRNAs and peptides were formed by incubation of 100 nM siRNA with the indicated peptide concentrations in OptiMEM for 30 minutes at room temperature. The complexes were added to the cells and incubated for 3 hours. Subsequently, OptiMEM was replaced with normal RPMI 1640 growth medium. The cells were incubated for further 21 hours for generating bDNA lysates, and for further 45 hours for performing CellTiter-Glo or CytoTox-Glo assays (cf. below).
In order to measure the number of living cells the CellTiter-Glo Luminescent Cell Viability Assay (Promega Corporation, Madison, Wis., USA) was used according to the protocol of the manufacturer. The cells were incubated for 48 hours in the presence of peptides and siRNAs. Subsequently, the cells are lysed, and a luminescent signal proportional to the amount of ATP present is generated which, in turn, is proportional to the number of living cells present. Luminescence was analyzed in an InfiniteF200 luminescence reader.
Based on this observation, GAPDH mRNA levels were used as a general readout for toxicity: an average measurement of 100% GAPDH mRNA relative to the medium control was considered as non-toxic, values between 99% and 70% as moderate toxic, and values of less than 70% as toxic (cf. FIG. 3).
Similarly, peptides resulting in GAPDH mRNA values >70% were classified as “nontoxic”, whereas peptides that caused a reduction of GAPDH mRNA to lesser values were termed “toxic”.

GAAEAAARVYDLGLRRLRQRRRLRRERVRA (NRTN peptide sequence; listed as Homo sapiens)
apoptotic phenotype upon siEg5 transfection (human Eg5 mRNA; CytoTox-Glo): an apoptotic phenotype was observed
peptide concentration giving effective reduction of cellular Eg5 mRNA levels (human Eg5 mRNA; siRNA targeting Eg5): < 10 µM
transfection in the presence of medium with reduced serum concentration (human Aha1 mRNA): can still mediate transfection
cell viability / induction of apoptosis [1]: did not affect cell viability or lead to induction of apoptosis
BCL2 in eluates from peptide-coated beads (recombinant BCL2): very small amounts of BCL2 were eluted
peptide concentration at which cell growth/viability was affected (MCF7 cells): above 10 μM
